Source: US9981916B2 (Genentech, Inc., priority 2013, dated 2018)

These compounds were tested against T1, RORc ligand binding domain (Homo sapiens, UniProt P51449) (assay: In vitro RORc ligand binding assay (25-[3H]hydroxycholesterol displacement, filter binding)). Conditions: 6 nM 25-[3H]hydroxycholesterol, 0.6 ug/mL RORc receptor, 3 h at 25° C.
T1 construct: host or cells: E. coli
T1 sequence (P51449 269-508 limits assumed): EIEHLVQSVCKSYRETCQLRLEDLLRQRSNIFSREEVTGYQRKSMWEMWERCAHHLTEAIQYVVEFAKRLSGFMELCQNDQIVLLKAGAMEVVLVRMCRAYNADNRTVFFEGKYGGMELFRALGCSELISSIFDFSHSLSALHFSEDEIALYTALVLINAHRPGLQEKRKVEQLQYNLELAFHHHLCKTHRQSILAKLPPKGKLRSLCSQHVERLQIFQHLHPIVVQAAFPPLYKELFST
Experimental: Example 17: In Vitro RORc Ligand Binding Assay
This assay was used to determine a compound's potency in inhibiting activity of RORc by determining, Kiapp, IC50, or percent inhibition values.
On day of the assay, 100 uL of 0.05% CHAPS (in deionized H2O) was added to all wells of the GFB Unifilter plate and allowed soak for 1 h. A wash buffer of 50 mM HEPES (pH 7.4), 150 mM NaCl, and 5 mM MgCl2 was prepared to wash the filter plate. To prepare an assay buffer, BSA was added to the wash buffer to reach 0.01% and DTT was added to reach 1 mM.
For IC50 mode, 10 mM compound stocks were serially diluted in DMSO with DMSO to give 20× required final concentration in DMSO (15 uL compound+30 uL DMSO). The 20× compound stocks were diluted in DMSO with Assay Buffer 4-fold to reach 5× the final test concentration in 25% DMSO (10 uL compound+30 uL Assay Buffer). Solutions were mixed by aspiration several times with a pipette set on 50 uL volume. For the assay, 10 uL of 5× compound stock solutions in 25% DMSO were added to the assay plate in duplicate.
For two point screening, 10 mM stock compound solutions were diluted in DMSO to obtain 200 uM (20× the high test concentration) and then diluted 10-fold further to reach 20 uM (20× the low test concentration). The 20× stocks were diluted 4-fold with Assay Buffer (10 uL compound+30 uL Assay Buffer) to reach 5× the test concentrations (50 uM and 5 uM) and 10 uL were added to two assay plates for the duplicate wells. With each concentration tested on 2 plates, each set of 80 compounds used 4 assay plates (1 uM and 10 uM, with n=2).
25-hydroxycholesterol (1 uM) was used to determine the level of NSB signal is prepared in DMSO as for compounds above, then diluted in Assay Buffer to give a final concentration of 5 uM. For 25-hydroxycholesterol in 25% DMSO/75% Assay Buffer; 10 uL per well was used for NSB samples. Wells for Total Binding and No Receptor sample determination contained 10 uL of 25% DMSO/75% Assay Buffer per well.
25-[^3H]hydroxycholesterol was diluted in Assay Buffer to obtain 15 nM and vortex to mix. Add 20 uL to all wells to reach 6 nM final concentration in the assay.
Stock receptor solution was diluted in assay buffer to obtain 1.5 ug/mL in Assay Buffer. 20 uL was added to all wells. For No Receptor samples, 20 uL Assay Buffer was substituted for receptor solution.
Assay plates were 96-well polypropylene V-bottom plates. 10 uL of 5× compound in 25% DMSO/75% Assay Buffer was added to Test wells. 10 uL of 25% DMSO/75% Assay Buffer was added to Total Binding or No Receptor wells. 10 uL of 5 uM 25-hydroxycholesterol in 25% DMSO/75% Assay Buffer was added to NSB wells. 20 uL of 15 nM 25-[^3H]hydroxycholesterol prepared in Assay Buffer was added to all wells. 20 uL of 1.5 ug/mL RORc receptor was added to wells (or […] Assay Buffer to No R wells). Following addition to the wells, the plates were incubated 3 h at 25° C.
Using a Packard Filtermate Harvester, the filter plate were washed 4 times following transfer of the incubated samples. Plates were dry-filtered completely (2 h at 50° C. or overnight at room temperature). 50 uL Microscint 0 was added to all wells and read on Topcount protocol Inverted.
Final concentrations were as follows: 50 mM HEPES buffer (pH 7.4); 150 mM NaCl; 1 mM DTT; 5 mM MgCl2; 0.01% BSA; 5% DMSO; 0.6 ug/mL RORc receptor; 6 nM 25-[^3H]hydroxycholesterol. For NSB wells, 1 uM 25-hydroxycholesterol was also present.

Row | SMILES | IC50 [nM]
1 | Cc1nnc(C[C@@]23CC[C@@H](c4cc(-c5c(F)cccc5F)nnc42)C3(C)C)o1 [Example 65, (5R,8R)-3-(2,6-difluorophenyl)-9,9-dimethyl-8-[(5-methyl-1,3,4-oxadiazol-2-yl)methyl]-5,6,7,8-tetrahydro-5,8-methanocinnoline] | 131
2 | CC1(C)[C@@H]2CC[C@@]1(CO)c1nnc(-c3c(F)cccc3Cl)cc12 [Example 23, [(5S,8S)-3-(2-chloro-6-fluorophenyl)-9,9-dimethyl-6,7-dihydro-5,8-methanocinnolin-8(5H)-yl]methanol] | 381
3 | CC1(C)[C@@H]2CC[C@@]1(C(=O)NCC(F)F)c1nnc(-c3ccccc3F)cc12 [Example 130, (5S,8S)-N-(2,2-difluoroethyl)-3-(2-fluorophenyl)-9,9-dimethyl-5,6,7,8-tetrahydro-5,8-methanocinnoline-8-carboxamide] | 1120
4 | Cc1noc(C[C@]23CC[C@H](c4cc(-c5ccccc5F)nnc42)C3(C)C)n1 [Example 42, (5S,8S)-3-(2-fluorophenyl)-9,9-dimethyl-8-[(3-methyl-yl)methyl]-5,6,7,8-tetrahydro-5,8-methanocinnoline] | 238
5 | CC1(C)[C@H]2CC[C@]1(CO)c1nnc(Oc3c(F)cccc3F)cc12 [Example 145, ((5R,8R)-3-(2,6-difluorophenoxy)-9,9-dimethyl-5,6,7,8-tetrahydro-5,8-methanocinnolin-8-yl)methanol] | 2000
6 | CC1(C)[C@H]2CC[C@]1(CN(CC(N)=O)CC(F)F)c1nnc(-c3c(F)cccc3F)cc12 [Example 305, 2-((2,2-difluoroethyl)(((5R,8S)-3-(2,6-difluorophenyl)-9,9-dimethyl-5,6,7,8-tetrahydro-5,8-methanocinnolin-8-yl)methyl)amino) acetamide] | 437
7 | CC1(C)[C@@H]2CC[C@@]1(CNCC(F)F)c1nnc(-c3c(F)cccc3F)cc12 [Example 328, N-(((5S,8R)-3-(2,6-difluorophenyl)-9,9-dimethyl-5,6,7,8-tetrahydro-5,8-methanocinnolin-8-yl)methyl)-2,2-difluoroethanamine] | 74
8 | CN([C@@]12CC[C@@H](c3cc(-c4c(F)cccc4F)nnc31)C2(C)C)S(C)(=O)=O [Example 286, N-((5R,8R)-3-(2,6-difluorophenyl)-9,9-dimethyl-5,6,7,8-tetrahydro-5,8-methanocinnolin-8-yl)-N-methylmethanesulfonamide] | 219
9 | CC(C)c1nnc([C@@]23CC[C@@H](c4cc(-c5c(F)cccc5F)nnc42)C3(C)C)o1 [Example 125, (5R,8R)-3-(2,6-difluorophenyl)-9,9-dimethyl-8-(5-isopropyl-1,3,4-oxadiazol-2-yl)-5,6,7,8-tetrahydro-5,8-methanocinnoline] | 811
10 | CC1(C)[C@H]2CC[C@]1(COc1cncc(=O)[nH]1)c1nnc(-c3c(F)cccc3F)cc12 [Example 330, 6-(((5R,8R)-3-(2,6-difluorophenyl)-9,9-dimethyl-5,6,7,8-tetrahydro-5,8-methanocinnolin-8-yl)methoxy)pyrazin-2(1H)-one] | 1980
11 | Cn1nc([C@]23CC[C@H](c4cc(-c5c(F)cccc5F)nnc42)C3(C)C)oc1=O [Example 263, 5-((5S,8S)-3-(2,6-difluorophenyl)-9,9-dimethyl-5,6,7,8-tetrahydro-5,8-methanocinnolin-8-yl)-3-methyl-1,3,4-oxadiazol-2(3H)-one] | 471
12 | CC1(C)[C@H]2C=C[C@]1(C)c1nnc(-c3c(F)cccc3F)cc12 [Example 126, (5R,8S)-3-(2,6-difluorophenyl)-8,9,9-trimethyl-5,8-dihydro-5,8-methanocinnoline] | 340

Continued, values first:

Row | IC50 [nM] | SMILES
13 | 498 | CC1(C)CCN(C(=O)[C@]23CC[C@H](c4cc(-c5c(F)cccc5F)nnc42)C3(C)C)C1 [Example 237, ((5S,8S)-3-(2,6-difluorophenyl)-9,9-dimethyl-5,6,7,8-tetrahydro-5,8-methanocinnolin-8-yl)(3,3-dimethylpyrrolidin-1-yl)methanone]
14 | 171 | CC1(C)[C@H]2CC[C@]1(N1CCNC1=O)c1nnc(-c3c(F)cccc3F)cc12 [Example 184, 1-((5R,8R)-3-(2,6-difluorophenyl)-9,9-dimethyl-5,6,7,8-tetrahydro-5,8-methanocinnolin-8-yl)imidazolidin-2-one]
15 | 1230 | CC1(C)[C@@H]2CC[C@@]1(C(=O)NC1CCCC1)c1nnc(-c3c(F)cccc3F)cc12 [Example 206, (5S,8S)-N-cyclopentyl-3-(2,6-difluorophenyl)-9,9-dimethyl-5,6,7,8-tetrahydro-5,8-methanocinnoline-8-carboxamide]
16 | 321 | CC1(C)[C@H]2CC[C@]1(CN1CCNC1=O)c1nnc(-c3c(F)cccc3F)cc12 [Example 268, 1-(((5R,8S)-3-(2,6-difluorophenyl)-9,9-dimethyl-5,6,7,8-tetrahydro-5,8-methanocinnolin-8-yl)methyl)imidazolidin-2-one]
17 | 2470 | COC1CCN(C(=O)[C@@]23CC[C@@H](c4cc(-c5ccccc5F)nnc42)C3(C)C)CC1 [Example 173, ((5R,8R)-3-(2-fluorophenyl)-9,9-dimethyl-5,6,7,8-tetrahydro-5,8-methanocinnolin-8-yl)(4-methoxypiperidin-1-yl)methanone]
18 | 1790 | CC1(C)[C@@H]2CC[C@@]1(C(=O)Nc1ccccc1S(C)(=O)=O)c1nnc(-c3ccccc3F)cc12 [Example 129, (5S,8S)-3-(2-fluorophenyl)-9,9-dimethyl-N-(2-(methylsulfonyl)phenyl)-5,6,7,8-tetrahydro-5,8-methanocinnoline-8-carboxamide]
19 | 1220 | CC(=O)N(C)C1CCN(C(=O)[C@]23CC[C@H](c4cc(-c5c(F)cccc5F)nnc42)C3(C)C)C1 (stereo partly drawn) [Example 203, N-(1-((5S,8S)-3-(2,6-difluorophenyl)-9,9-dimethyl-5,6,7,8-tetrahydro-5,8-methanocinnoline-8-carbonyl)pyrrolidin-3-yl)-N-methylacetamide]
20 | 3250 | CC1(C)[C@H]2CC[C@]1(C(=O)N1CC(OCc3ccccc3)C1)c1nnc(-c3c(F)cccc3F)cc12 [Example 198, (3-(benzyloxy)azetidin-1-yl)((5R,8R)-3-(2,6-difluorophenyl)-9,9-dimethyl-5,6,7,8-tetrahydro-5,8-methanocinnolin-8-yl)methanone]
21 | 1920 | CC1(C)[C@H]2CC[C@]1(CNC1COC1)c1nnc(-c3c(F)cccc3F)cc12 [Example 317, N-(((5R,8S)-3-(2,6-difluorophenyl)-9,9-dimethyl-5,6,7,8-tetrahydro-5,8-methanocinnolin-8-yl)methyl)oxetan-3-amine]
22 | 438 | CC1(C)[C@H]2CC[C@]1(N1CCOC1=O)c1nnc(-c3c(F)cccc3F)cc12 [Example 257, 3-((5R,8R)-3-(2,6-difluorophenyl)-9,9-dimethyl-5,6,7,8-tetrahydro-5,8-methanocinnolin-8-yl)oxazolidin-2-one]
23 | 193 | CC1(C)[C@@H]2CC[C@@]1(C(=O)NCC1CC1)c1nnc(-c3c(F)cccc3F)cc12 [Example 202, (5S,8S)-N-(cyclopropylmethyl)-3-(2,6-difluorophenyl)-9,9-dimethyl-5,6,7,8-tetrahydro-5,8-methanocinnoline-8-carboxamide]
